By IC50 is commonly meant the concentration that gives 50% inhibition.

In publication PMC3021320 (FEBS letters, 2010) one finds IC50 data, which are given here for one molecule.

In the experiment the target is T1, Janus kinase 3 (JAK3) (Homo sapiens, UniProt P52333).
T1 sequence (P52333 1-1124): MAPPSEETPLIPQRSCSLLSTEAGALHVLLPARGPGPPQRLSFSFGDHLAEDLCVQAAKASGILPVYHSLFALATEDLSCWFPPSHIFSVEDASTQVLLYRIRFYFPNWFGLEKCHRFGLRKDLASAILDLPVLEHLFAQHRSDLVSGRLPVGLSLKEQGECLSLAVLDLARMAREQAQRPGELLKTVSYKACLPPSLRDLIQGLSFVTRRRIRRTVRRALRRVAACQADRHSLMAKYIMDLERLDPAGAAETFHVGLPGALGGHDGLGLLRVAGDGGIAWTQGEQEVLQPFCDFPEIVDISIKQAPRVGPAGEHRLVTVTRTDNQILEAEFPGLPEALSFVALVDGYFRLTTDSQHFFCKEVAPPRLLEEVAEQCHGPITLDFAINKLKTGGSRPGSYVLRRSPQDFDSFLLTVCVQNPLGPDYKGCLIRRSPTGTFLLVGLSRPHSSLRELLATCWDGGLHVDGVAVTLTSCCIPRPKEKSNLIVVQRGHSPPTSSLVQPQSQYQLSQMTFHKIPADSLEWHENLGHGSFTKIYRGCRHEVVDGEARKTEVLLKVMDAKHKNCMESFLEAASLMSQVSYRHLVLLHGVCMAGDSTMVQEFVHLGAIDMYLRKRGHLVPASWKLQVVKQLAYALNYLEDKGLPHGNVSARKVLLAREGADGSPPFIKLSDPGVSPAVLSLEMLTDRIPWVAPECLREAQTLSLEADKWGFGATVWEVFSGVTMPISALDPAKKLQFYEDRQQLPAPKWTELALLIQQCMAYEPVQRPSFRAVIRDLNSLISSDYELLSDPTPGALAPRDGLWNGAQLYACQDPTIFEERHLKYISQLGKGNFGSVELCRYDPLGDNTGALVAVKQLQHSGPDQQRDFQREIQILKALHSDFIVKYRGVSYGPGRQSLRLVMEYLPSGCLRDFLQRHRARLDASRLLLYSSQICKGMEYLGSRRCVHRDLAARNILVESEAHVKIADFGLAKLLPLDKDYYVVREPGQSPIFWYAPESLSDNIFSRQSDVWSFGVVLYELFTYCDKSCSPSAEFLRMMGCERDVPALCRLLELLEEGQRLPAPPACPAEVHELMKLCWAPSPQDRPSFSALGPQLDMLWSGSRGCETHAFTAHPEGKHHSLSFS
Kind of experiment: kinase assay. The format is cell-based.

`O=c1cc(-c2ccc(O)cc2)oc2cc(O)cc(O)c12` [apigenin]: the IC50 turned out to be 1.3 nM.
